The term IC50 denotes the concentration that inhibits the measured activity by half.

The structures appear in SMILES notation.

The first experiment deals with P. falciparum 3D7 strain (Pf3D7). Put plainly: Antiplasmodial activity against P. falciparum 3D7 blood-stage parasites (SYBR Green, 72 h). In kind it is cell-based, Plasmodium falciparum. To be noted: Plasmodium falciparum, 3D7, 72 h, 3D7 strain, 72 h, SYBR Green; read-out: Pf3D7-IC50.
`O=C(c1cc2cc(Cl)ccc2[nH]1)N(Cc1cnccn1)CC1CCNC1` (centres unmarked) [Compound 6n, 5-Chloro-N-(pyrazin-2-ylmethyl)-N-(pyrrolidin-3-ylmethyl)-1H-indole-2-carboxamide]: the half-maximal inhibitory concentration (IC50) is more than 10 µM.
The same measure, in the same setting: with `O=C(c1c[nH]c2ccc(Cl)cc12)N(Cc1cccnc1)CC1CCNC1` (centres unmarked) [Compound 6h, 5-Chloro-N-(3-pyridylmethyl)-N-(pyrrolidin-3-ylmethyl)-1H-indole-3-carboxamide] the figure was more than 10 µM.
On to `O=C1CC(CN(Cc2cccnc2)C(=O)c2cc3cc(Cl)ccc3[nH]2)CN1` (centres unmarked) [Compound 5s, 5-Chloro-N-[(5-oxopyrrolidin-3-yl)methyl]-N-(3-pyridylmethyl)-1H-indole-2-carboxamide], for which the IC50 was more than 10 µM.
On the same count and under the same terms, with `O=C(c1cc2cc(Cl)ccc2[nH]1)N(Cc1ccccc1)CC1CCNC1` (centres unmarked) [Compound 6k, N-Benzyl-5-chloro-N-(pyrrolidin-3-ylmethyl)-1H-indole-2-carboxamide] the figure was 6.7 ± 0.3 µM; with `CS(=O)(=O)c1ccc(CN(CC2CCNC2)C(=O)c2cc3cc(Cl)ccc3[nH]2)cn1` (centres unmarked) [Compound 6p, 5-Chloro-N-[(6-methylsulfonyl-3-pyridyl)methyl]-N-(pyrrolidin-3-ylmethyl)-1H-indole-2-carboxamide], more than 10 µM.
Turning to `O=C(c1nc2cc(Cl)ccc2[nH]1)N(Cc1cccnc1)CC1CCNC1` (centres unmarked) [Compound 6i, 5-Chloro-N-(3-pyridylmethyl)-N-(pyrrolidin-3-ylmethyl)-1H-benzimidazole-2-carboxamide], the IC50 was more than 10 µM.
Same read-out and setting: next, `O=C(c1cc2cc(Cl)ccc2[nH]1)N(Cc1cccnc1)CC1CCOC1` (centres unmarked) [Compound 5r, 5-Chloro-N-(pyridin-3-ylmethyl)-N-((tetrahydrofuran-3-yl)methyl)-1H-indole-2-carboxamide]: more than 10 µM; `CNCCN(CC1CCNC1)C(=O)c1cc2cc(Cl)ccc2[nH]1` (centres unmarked) [Compound 6q, 5-Chloro-N-[2-(methylamino)ethyl]-N-(pyrrolidin-3-ylmethyl)-1H-indole-2-carboxamide]: more than 10 µM.
`O=C(c1cccc(Cl)c1)N(Cc1cccnc1)CC1CCNC1` (centres unmarked) [Compound 6j, 3-Chloro-N-(pyridin-3-ylmethyl)-N-(pyrrolidin-3-ylmethyl)benzamide]: the IC50 was more than 25 µM.
Still for that read-out and setting: next, `O=C(c1cc2ccccc2[nH]1)N(Cc1cccnc1)CC1CCNC1` (centres unmarked) [Compound 6b, N-(3-Pyridylmethyl)-N-(pyrrolidin-3-ylmethyl)-1H-indole-2-carboxamide]: 8.3 ± 0.2 µM.
The same measure, in the same setting: next, `O=C(c1cc2cc(Cl)ccc2[nH]1)N(Cc1ccccn1)CC1CCNC1` (centres unmarked) [Compound 6m, 5-Chloro-N-(2-pyridylmethyl)-N-(pyrrolidin-3-ylmethyl)-1H-indole-2-carboxamide]: 14.1 ± 0.6 µM; `O=C(c1cc2cc(Cl)ccc2[nH]1)N(Cc1ccncc1)CC1CCNC1` (centres unmarked) [Compound 6l, 5-Chloro-N-(4-pyridylmethyl)-N-(pyrrolidin-3-ylmethyl)-1H-indole-2-carboxamide]: 12.8 ± 0.8 µM.

Still in this experiment, the particulars now being: regio-isomers compared to 6a.
Consider `O=C(c1cc2cc(Cl)ccc2[nH]1)N(Cc1ccccn1)CC1CCNC1` (centres unmarked) [Compound 6m, 5-Chloro-N-(2-pyridylmethyl)-N-(pyrrolidin-3-ylmethyl)-1H-indole-2-carboxamide], for which the “Pf3D7-IC50 compared to 6a” value was more than 10 fold.
The same measure, in the same setting: with `O=C(c1cc2cc(Cl)ccc2[nH]1)N(Cc1ccncc1)CC1CCNC1` (centres unmarked) [Compound 6l, 5-Chloro-N-(4-pyridylmethyl)-N-(pyrrolidin-3-ylmethyl)-1H-indole-2-carboxamide] the figure was more than 10 fold.

For the origin of these results see paper PMC12531871, “Indole-2-carboxamides Optimization for Antiplasmodial Activity” (ACS Bio & Med Chem Au, 2025).
